This passage reports IC50 results from US7750003B2, “Compounds-943” (AstraZeneca AB, priority 2006, dated 2010).

pIC50: −log10 of the molar value.

One assay concerns phosphorylation of Serine 473 in Akt in MDA-MB-468 human breast adenocarcinoma cells. As to the kind of experiment: In vitro phospho-Ser473 Akt assay (Test (c)). It is filed as cell-based. To be noted: Homo sapiens, MDA-MB-468, 2 h, MDA-MB-468 cells, 2 hours incubation; read-out: Test (c): IC50 versus Serine 473 in Akt. Put shortly:
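MDA-MB-468 cells (15000/well, adhered overnight) treated with compound for 2 h at 37 °C, 5% CO2. After formaldehyde fixation, permeabilisation and blocking, phospho-Akt Ser473 immunostained with Alexafluor488 secondary and quantified by laser-scanning imaging (Acumen Explorer); IC50 from fluorescence dose–response.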
Regarding `C[C@H](CO)NC(=O)Nc1ccc(-c2nc(N3CCOC[C@@H]3C)cc(C(C)(C)S(C)(=O)=O)n2)cc1` [Example 24ap, 3-[(2R)-1-hydroxypropan-2-yl]-1-[4-[4-[(3S)-3-methylmorpholin-4-yl]-6-(2-methylsulfonylpropan-2-yl)pyrimidin-2-yl]phenyl]urea], the pIC50 is 7.11.

`CC(NC(=O)Nc1ccc(-c2nc(N3CCOC[C@@H]3C)cc(C(C)(C)S(C)(=O)=O)n2)cc1)c1cccnc1` (stereo partly drawn) [Example 24ax, 1-[4-[4-[(3S)-3-methylmorpholin-4-yl]-6-(2-methylsulfonylpropan-2-yl)pyrimidin-2-yl]phenyl]-3-(1-pyridin-3-ylethyl)urea]: the pIC50 is 6.19. Consider `CCNC(=O)Nc1ncc(-c2nc(N3CCOC[C@@H]3C)cc(C(C)(C)S(C)(=O)=O)n2)cn1` [Example 24af, 1-ethyl-3-[5-[4-[(3S)-3-methylmorpholin-4-yl]-6-(2-methylsulfonylpropan-2-yl)pyrimidin-2-yl]pyrimidin-2-yl]urea], for which the pIC50 was 5.85. In the case of `C[C@H]1COCCN1c1cc(C(C)(C)S(C)(=O)=O)nc(-c2cnc(NC(=O)NC3CC3)nc2)n1` [Example 24ag, 3-cyclopropyl-1-[5-[4-[(3S)-3-methylmorpholin-4-yl]-6-(2-methylsulfonylpropan-2-yl)pyrimidin-2-yl]pyrimidin-2-yl]urea], the pIC50 is 6.49. Turning to `CNC(=O)Nc1ccc(-c2nc(N3CCOC[C@@H]3C)cc(C(C)(C)S(=O)(=O)C(C)C)n2)cc1` [Example 60i, 3-methyl-1-[4-[4-[(3S)-3-methylmorpholin-4-yl]-6-(2-propan-2-ylsulfonylpropan-2-yl)pyrimidin-2-yl]phenyl]urea], the pIC50 was 6.92.

Take `COCc1cc(N2CCOC[C@@H]2C)nc(-c2ccc(NC(=O)NC3CC3)cc2)n1` [Example 54, 3-Cyclopropyl-1-[4-[4-(methoxymethyl)-6-[(3S)-3-methylmorpholin-4-yl]pyrimidin-2-yl]phenyl]urea]: the pIC50 is 6.96. On the same count and under the same terms, with `C[C@H]1COCCN1c1cc(CS(=O)(=O)c2ccc(F)cc2)nc(-c2ccc(NC(=O)NCCO)cc2)n1` [Example 61c, 1-[4-[4-[(4-fluorophenyl)sulfonylmethyl]-6-[(3S)-3-methylmorpholin-4-yl]pyrimidin-2-yl]phenyl]-3-(2-hydroxyethyl)urea] the figure was 6.39; with `CC(C)NC(=O)Nc1ccc(-c2nc(N3CCOC[C@@H]3C)cc(C(C)(C)S(=O)(=O)c3ccc(F)cc3)n2)cc1` [Example 61m, 1-[4-[4-[2-(4-fluorophenyl)sulfonylpropan-2-yl]-6-[(3S)-3-methylmorpholin-4-yl]pyrimidin-2-yl]phenyl]-3-propan-2-yl-urea], 7.52.

Take `C[C@H]1COCCN1c1cc(C(C)(C)S(C)(=O)=O)nc(-c2ccc(NC(=O)NCc3cnn(C)c3)cc2)n1` [Example 24av, 1-[4-[4-[(3S)-3-methylmorpholin-4-yl]-6-(2-methylsulfonylpropan-2-yl)pyrimidin-2-yl]phenyl]-3-[(1-methylpyrazol-4-yl)methyl]urea]: the pIC50 was 5.31. Still for that read-out and setting: under `CC(C)S(=O)(=O)Cc1cc(N2CCOC[C@@H]2C)nc(-c2ccc(NC(=O)Nc3ccccn3)cc2)n1` [Example 60e, 1-[4-[4-[(3S)-3-methylmorpholin-4-yl]-6-(propan-2-ylsulfonylmethyl)pyrimidin-2-yl]phenyl]-3-pyridin-2-yl-urea] stands 5.89; under `C[C@H]1COCCN1c1cc(C(C)(C)S(=O)(=O)c2ccc(F)cc2)nc(-c2ccc(NC(=O)NC3CC3)cc2)n1` [Example 61q, 3-cyclopropyl-1-[4-[4-[2-(4-fluorophenyl)sulfonylpropan-2-yl]-6-[(3S)-3-methylmorpholin-4-yl]pyrimidin-2-yl]phenyl]urea], 7.11; under `C[C@H]1COCCN1c1cc(C(C)(C)S(=O)(=O)C(C)(C)C)nc(-c2ccc(NC(=O)NC3CCC3)cc2)n1` [Example 66d, 3-cyclobutyl-1-[4-[4-[(3S)-3-methylmorpholin-4-yl]-6-(2-tert-butylsulfonylpropan-2-yl)pyrimidin-2-yl]phenyl]urea], 6.80.

On to `CC(C)NC(=O)Nc1ccc(-c2nc(CS(=O)(=O)c3ccc(F)cc3)cc(N3CCOC[C@@H]3C)n2)cc1` [Example 61b, 1-[4-[4-[(4-fluorophenyl)sulfonylmethyl]-6-[(3S)-3-methylmorpholin-4-yl]pyrimidin-2-yl]phenyl]-3-propan-2-yl-urea], for which the pIC50 is 7.42. Same read-out and setting: with `CC(C)S(=O)(=O)C(C)(C)c1cc(N2CCOC[C@@H]2C)nc(-c2ccc(NC(=O)NCCN(C)C)cc2)n1` [Example 60p, 3-(2-dimethylaminoethyl)-1-[4-[4-[(3S)-3-methylmorpholin-4-yl]-6-(2-propan-2-ylsulfonylpropan-2-yl)pyrimidin-2-yl]phenyl]urea] the figure was 6.85; with `CCNC(=O)Nc1ccc(-c2nc(N3CCOC[C@@H]3C)cc(C(C)(C)S(C)(=O)=O)n2)cn1` [Example 24ai, 1-ethyl-3-[5-[4-[(3S)-3-methylmorpholin-4-yl]-6-(2-methylsulfonylpropan-2-yl)pyrimidin-2-yl]pyridin-2-yl]urea], 6.59; with `C[C@H]1COCCN1c1cc(C(C)(C)S(C)(=O)=O)nc(-c2ccc(NC(=O)N(C)C)cc2)n1` [Example 24ba, 1,1-dimethyl-3-[4-[4-[(3S)-3-methylmorpholin-4-yl]-6-(2-methylsulfonylpropan-2-yl)pyrimidin-2-yl]phenyl]urea], 5.29. The same measure, in the same setting: with `C[C@H]1COCCN1c1cc(CS(=O)(=O)CCO)nc(-c2ccc(NC(=O)Nc3ccon3)cc2)n1` [Example 40a, 1-[4-[4-(2-hydroxyethylsulfonylmethyl)-6-[(3S)-3-methylmorpholin-4-yl]pyrimidin-2-yl]phenyl]-3-(1,2-oxazol-3-yl)urea] the figure was 7.26; with `C[C@H]1COCCN1c1cc(C(C)(C)S(C)(=O)=O)nc(-c2ccc(NC(=O)NC(C)(C)CO)cc2)n1` [Example 24an, 3-(1-hydroxy-2-methyl-propan-2-yl)-1-[4-[4-[(3S)-3-methylmorpholin-4-yl]-6-(2-methylsulfonylpropan-2-yl)pyrimidin-2-yl]phenyl]urea], 5.74. In the case of `C[C@H]1COCCN1c1cc(C(C)(C)S(=O)(=O)C2CC2)nc(-c2ccc(NC(=O)NC(C)(C)CO)cc2)n1` [Example 57a, 1-[4-[4-(2-cyclopropylsulfonylpropan-2-yl)-6-[(3S)-3-methylmorpholin-4-yl]pyrimidin-2-yl]phenyl]-3-(1-hydroxy-2-methyl-propan-2-yl)urea], the pIC50 was 7.19.

Take `CC(C)S(=O)(=O)Cc1cc(N2CCOC[C@@H]2C)nc(-c2ccc(NC(=O)NC3CCC3)cc2)n1` [Example 60, 3-Cyclobutyl-1-[4-[4-[(3S)-3-methylmorpholin-4-yl]-6-(propan-2-ylsulfonylmethyl)pyrimidin-2-yl]phenyl]urea]: the pIC50 is 6.00.

`C[C@H]1COCCN1c1cc(CS(=O)(=O)c2ccncc2)nc(-c2ccc(NC(=O)NC3CCC3)cc2)n1` [Example 48, 3-Cyclobutyl-1-[4-[4-[(3S)-3-methylmorpholin-4-yl]-6-(pyridin-4-ylsulfonylmethyl)pyrimidin-2-yl]phenyl]urea]: the pIC50 is 7.42.

`Cc1cc(CNC(=O)Nc2ccc(-c3nc(N4CCOC[C@@H]4C)cc(C(C)(C)S(C)(=O)=O)n3)cc2)no1` [Example 24aw, 3-[4-[4-[(3S)-3-methylmorpholin-4-yl]-6-(2-methylsulfonylpropan-2-yl)pyrimidin-2-yl]phenyl]-1-[(5-methyl-1,2-oxazol-3-yl)methyl]urea]: the pIC50 was 5.47. Still for that read-out and setting: under `C[C@H]1COCCN1c1cc(C(C)(C)S(C)(=O)=O)nc(-c2ccc(NC(=O)NCCCO)cc2)n1` [Example 24as, 3-(3-hydroxypropyl)-1-[4-[4-[(3S)-3-methylmorpholin-4-yl]-6-(2-methylsulfonylpropan-2-yl)pyrimidin-2-yl]phenyl]urea] stands 6.66; under `C[C@H]1COCCN1c1cc(CS(=O)(=O)c2ccc(F)cc2)nc(-c2ccc(NC(=O)NC3CCC3)cc2)n1` [Example 61, 3-Cyclobutyl-1-[4-[4-[(4-fluorophenyl)sulfonylmethyl]-6-[(3S)-3-methylmorpholin-4-yl]pyrimidin-2-yl]phenyl]urea], 6.48; under `C[C@H]1COCCN1c1cc(CS(=O)(=O)C2CC2)nc(-c2ccc(NC(=O)NC3CCC3)cc2)n1` [Example 57l, 3-cyclobutyl-1-[4-[4-(cyclopropylsulfonylmethyl)-6-[(3S)-3-methylmorpholin-4-yl]pyrimidin-2-yl]phenyl]urea], 7.06. With `CC(C)NC(=O)Nc1ccc(-c2nc(N3CCOC[C@@H]3C)cc(C(C)(C)S(C)(=O)=O)n2)cc1` [Example 24al, 1-[4-[4-[(3S)-3-methylmorpholin-4-yl]-6-(2-methylsulfonylpropan-2-yl)pyrimidin-2-yl]phenyl]-3-propan-2-yl-urea], the pIC50 was 7.42. As to `CC(C)S(=O)(=O)C(C)(C)c1cc(N2CCOC[C@@H]2C)nc(-c2ccc(NC(=O)Nc3cnn(C)c3)cc2)n1` [Example 60v, 1-[4-[4-[(3S)-3-methylmorpholin-4-yl]-6-(2-propan-2-ylsulfonylpropan-2-yl)pyrimidin-2-yl]phenyl]-3-(1-methylpyrazol-4-yl)urea], the pIC50 was 6.57.

As for `C[C@H]1COCCN1c1cc(C(C)(C)S(C)(=O)=O)nc(-c2ccc(NC(=O)NCc3cccnc3)cc2)n1` [Example 24ao, 1-[4-[4-[(3S)-3-methylmorpholin-4-yl]-6-(2-methylsulfonylpropan-2-yl)pyrimidin-2-yl]phenyl]-3-(pyridin-3-ylmethyl)urea], the pIC50 was 6.62.

Staying with this assay, now noted: MDA-MB-468 cells, 2 hours incubation; read-out: Test (c): IC50 versus Serine 473 in Akt.
Regarding “1-[4-[4-[(3S)-3-methylmorpholin- 4-yl]-6-(2-propan-2- yl]phenyl]-3-pyridin-2-yl-urea [Example 60u]”, the pIC50 is 6.80.
